We go through 17 molecules from patent US10273226B2, “Pyrazolyl-heteroarylamides as pesticides” (Bayer Animal Health GmbH, priority 2014, dated 2019).

Format in all cases: in vivo
One test relates to Rhipicephalus sanguineus. Put plainly: Rhipicephalus sanguineus in vitro contact test with adult brown dog ticks. The note with it: after 48 h, ticks dead or moribund. As for the experimental part: Rhipicephalus sanguineus—In Vitro Contact Tests with Adult Brown Dog Ticks
For the coating of the test tubes, 9 mg of active ingredient are first dissolved in 1 ml of acetone p.a. and then diluted to the desired concentration with acetone p.a. 250 μl of the solution are distributed homogeneously on the inner walls and base of a 25 ml test tube by turning and rocking on an orbital shaker (rocking rotation at 30 rpm for 2 h). With 900 ppm active ingredient solution and internal surface 44.7 cm^2, given homogeneous distribution, an area-based dose of 5 μg/cm^2 is achieved.
After the solvent has evaporated off, the tubes are populated with 5-10 adult dog ticks (Rhipicephalus sanguineus), sealed with a perforated plastic lid and incubated in a horizontal position in the dark at room temperature and ambient humidity. After 48 h, efficacy is determined. To this end, the ticks are knocked to the floor of the tube and incubated on a hotplate at 45-50° C. for not more than 5 min. Ticks which remain motionless on the floor or move in such an uncoordinated manner that they are unable to deliberately avoid the heat by climbing upwards are considered to be dead or moribund.
An efficacy of 100% means that all the ticks were dead or moribund. 0% efficacy means that none of the ticks had been harmed.

The next test relates to Boophilus microplus. As to the kind of experiment: Boophilus microplus injection test. Particulars: application rate 20 μg/animal; injection into abdomen; assessed after 7 days. On the procedure: Boophilus microplus—Injection Test
(§1) Solvent: dimethyl sulphoxide
To produce an appropriate active ingredient formulation, 10 mg of active ingredient are mixed with 0.5 ml of solvent and the concentrate is diluted with solvent to the desired concentration.
1 μl of the active ingredient solution is injected into the abdomen of 5 engorged adult female cattle ticks (Boophilus microplus). The animals are transferred into dishes and kept in a climate-controlled room.
Efficacy is assessed after 7 days by laying of fertile eggs. Eggs which are not visibly fertile are stored in a climate-controlled cabinet until the larvae hatch after about 42 days. An efficacy of 100% means that none of the ticks has laid any fertile eggs; 0% means that all the eggs are fertile.

Another test deals with Ctenocephalides felis. As to the kind of experiment: Ctenocephalides felis oral test. Particulars: application rate 100 ppm in citrated cattle blood; after 2 days. As for the experimental part: Ctenocephalides felis—Oral Test
as §1
For the purpose of producing an appropriate active ingredient formulation, 10 mg of active ingredient are mixed with 0.5 ml of dimethyl sulphoxide. Dilution with citrated cattle blood gives the desired concentration.
About 20 unfed adult cat fleas (Ctenocephalides felis) are placed into a chamber which is closed at the top and bottom with gauze. A metal cylinder whose bottom end is closed with parafilm is placed onto the chamber. The cylinder contains the blood/active ingredient preparation, which can be imbibed by the fleas through the parafilm membrane.
After 2 days, the kill in % is determined. 100% means that all of the fleas have been killed; 0% means that none of the fleas have been killed.

The test system of the next test is Lucilia cuprina. As to the kind of experiment: Lucilia cuprina test. The note with it: application rate 100 ppm; L1 larvae; after 2 days. As for the experimental part:
as §1
To produce an appropriate active ingredient formulation, 10 mg of active ingredient are mixed with 0.5 ml of dimethyl sulphoxide, and the concentrate is diluted with water to the desired concentration.
About 20 L1 larvae of the Australian sheep blowfly (Lucilia cuprina) are transferred into a test vessel containing minced horsemeat and the active ingredient preparation of the desired concentration.
After 2 days, the kill in % is determined. 100% means that all the larvae have been killed and 0% means that none of the larvae have been killed.

A further test concerns Phaedon cochleariae. Put plainly: Phaedon cochleariae spray test. The note with it: larvae, after 7 days. As for the experimental part:
Phaedon cochleariae—Spray Test
(§2) To produce an appropriate active ingredient formulation, 1 part by weight of active ingredient is dissolved using the specified parts by weight of solvent and made up with water containing an emulsifier concentration of 1000 ppm until the desired concentration is attained. To produce further test concentrations, the preparation is diluted with emulsifier-containing water.
Discs of Chinese cabbage leaves (Brassica pekinensis) are sprayed with an active ingredient formulation of the desired concentration and, after drying, populated with larvae of the mustard beetle (Phaedon cochleariae).
After 7 days, efficacy in % is determined. 100% means that all the beetle larvae have been killed; 0% means that no beetle larvae have been killed.

The test system of the next test is Spodoptera frugiperda. As to the kind of experiment: Spodoptera frugiperda spray test. Particulars: caterpillars, after 7 days. As for the experimental part:
Spodoptera frugiperda—Spray Test
as §2
Leaf discs of maize (Zea mays) are sprayed with an active ingredient formulation of the desired concentration and, after drying, populated with caterpillars of the armyworm (Spodoptera frugiperda).
After 7 days, efficacy in % is determined. 100% means that all the caterpillars have been killed; 0% means that no caterpillars have been killed.

The next test has as its system Tetranychus urticae. Put plainly: Tetranychus urticae spray test, OP-resistant. Particulars: application rate 100 g/ha; after 6 days. As for the experimental part: Tetranychus urticae—Spray Test, OP-Resistant
as §2
Discs of bean leaves (Phaseolus vulgaris) infested by all stages of the greenhouse red spider mite (Tetranychus urticae) are sprayed with an active ingredient formulation of the desired concentration.
After 6 days, efficacy in % is determined. 100% means that all the spider mites have been killed; 0% means that none of the spider mites have been killed.

Where [1] appears, read: application rate 5 μg/cm^2 (500 g/ha).

Consider `Cn1nc(C(F)(F)C(F)(F)F)c(C(F)(F)F)c1-n1cc(-c2ccc(F)c(NC(=O)c3ccc4c(c3)OCO4)c2)cn1` [Example 1-093], for which the efficacy in the test on Rhipicephalus sanguineus (setting [1]), in the test on Phaedon cochleariae (application rate 100 g/ha), in the test on Spodoptera frugiperda (application rate 100 g/ha) and with Tetranychus urticae was 100% throughout. Further, the “efficacy (laying of fertile eggs)” value with Boophilus microplus is recorded as 100%. For the same molecule, the “efficacy (kill in %)” value in the test on Ctenocephalides felis and in the test with Lucilia cuprina was 100% each time.
Consider `Cc1cc(C(=O)Nc2cc(-c3cnn(-c4c(C(F)(F)F)c(C(F)(F)C(F)(F)F)nn4C)c3)ccc2F)cc(Cl)n1` [Example 1-043], for which the efficacy was found to be 80% in the test with Rhipicephalus sanguineus (application rate 1 μg/cm^2 (100 g/ha)), 100% in the test with Phaedon cochleariae (application rate 100 g/ha), 100% with Spodoptera frugiperda (application rate 100 g/ha) and 100% in the test with Tetranychus urticae. The “efficacy (laying of fertile eggs)” value in the test on Boophilus microplus was 100%. Besides, the “efficacy (kill in %)” value with Ctenocephalides felis and in the test with Lucilia cuprina was 100% throughout.
For the molecule `Cn1nc(C(F)(F)C(F)(F)F)c(C(F)(F)F)c1-n1cc(-c2cccc(NC(=O)c3sccc3Cl)c2)cn1` [Example 1-018], the “efficacy (laying of fertile eggs)” value in the test on Boophilus microplus worked out at 100%. For the same molecule, the efficacy with Phaedon cochleariae (application rate 500 g/ha) was 100%; in the test on Spodoptera frugiperda (application rate 500 g/ha) it was 100%; in the test on Tetranychus urticae, 90%.
Take `Cn1nc(C(F)(F)C(F)(F)F)c(C(F)(F)F)c1-n1cc(-c2cccc(NC(=O)c3cc(Cl)nc(Cl)c3)c2)cn1` [Example 1-011]: the efficacy with Rhipicephalus sanguineus (setting [1]) is listed as 80%; in the test with Phaedon cochleariae (application rate 100 g/ha), 100%; in the test with Tetranychus urticae it was 90%. In addition, the “efficacy (laying of fertile eggs)” value with Boophilus microplus is given as 100%. In addition, the “efficacy (kill in %)” value with Ctenocephalides felis and in the test on Lucilia cuprina was 100% each time.
Consider `Cn1nc(C(F)(F)C(F)(F)F)c(C(F)(F)F)c1-n1cc(-c2cccc(NC(=O)c3c(F)cccc3F)c2)cn1` [Example 1-015], for which the efficacy is recorded as 80% with Rhipicephalus sanguineus (setting [1]), 100% with Phaedon cochleariae (application rate 100 g/ha), 100% with Spodoptera frugiperda (application rate 100 g/ha) and 100% in the test on Tetranychus urticae. Moreover, in the test with Boophilus microplus, the “efficacy (laying of fertile eggs)” value is listed as 100%. The “efficacy (kill in %)” value with Ctenocephalides felis and in the test with Lucilia cuprina was 100% throughout.
Turning to `CC(C)C(C)(C)C(=O)Nc1cc(-c2cnn(-c3c(C(F)(F)F)c(C(F)(F)C(F)(F)F)nn3C)c2)ccc1F` [Example 1-065], in the test with Boophilus microplus, the “efficacy (laying of fertile eggs)” value is given as 100%. In addition, the “efficacy (kill in %)” value in the test with Ctenocephalides felis is 90%; in the test with Lucilia cuprina, 80%. The same molecule showed an efficacy in the test on Tetranychus urticae of 100%.
For `Cn1nc(C(F)(F)C(F)(F)F)c(C(F)(F)F)c1-n1cc(-c2ccc(F)c(NC(=O)C3(C)CCCCC3)c2)cn1` [Example 1-053], the efficacy in the test with Tetranychus urticae was 100%.
In the case of `Cn1nc(C(F)(F)C(F)(F)F)c(C(F)(F)F)c1-n1cc(-c2ccc(F)c(NC(=O)Cc3cccc(F)c3)c2)cn1` [Example 1-121], the efficacy in the test on Rhipicephalus sanguineus (setting [1]), in the test on Phaedon cochleariae (application rate 100 g/ha), with Spodoptera frugiperda (application rate 100 g/ha) and in the test on Tetranychus urticae was 100% in each case. Besides, the “efficacy (laying of fertile eggs)” value in the test with Boophilus microplus is given as 100%. Besides, the “efficacy (kill in %)” value in the test on Ctenocephalides felis and in the test with Lucilia cuprina was 100% in each case.
With `CCC(C)C(=O)Nc1cc(-c2cnn(-c3c(C(F)(F)F)c(C(F)(F)C(F)(F)F)nn3C)c2)ccc1F` (racemic) [Example 1-052], in the test on Boophilus microplus, the “efficacy (laying of fertile eggs)” value stood at 100%. Further, the “efficacy (kill in %)” value came out at 90% in the test with Ctenocephalides felis and 100% in the test with Lucilia cuprina. The efficacy with Spodoptera frugiperda (application rate 100 g/ha) and in the test with Tetranychus urticae was 100% throughout.
For the molecule `Cn1nc(C(F)(F)C(F)(F)F)c(C(F)(F)F)c1-n1cc(-c2ccc(F)c(NC(=O)C(C)(C)C)c2)cn1` [Example 1-078], the efficacy in the test with Rhipicephalus sanguineus (setting [1]), in the test with Spodoptera frugiperda (application rate 100 g/ha) and in the test with Tetranychus urticae was 100% throughout. Besides, the “efficacy (laying of fertile eggs)” value in the test on Boophilus microplus amounted to 100%. For the same molecule, the “efficacy (kill in %)” value with Ctenocephalides felis is 80%; with Lucilia cuprina, 100%.
Regarding `Cc1ccc(C(=O)Nc2cc(-c3cnn(-c4c(C(F)(F)F)c(C(F)(F)C(F)(F)F)nn4C)c3)ccc2F)cc1F` [Example 1-092], the efficacy in the test on Rhipicephalus sanguineus (setting [1]), in the test on Phaedon cochleariae (application rate 100 g/ha), with Spodoptera frugiperda (application rate 100 g/ha) and in the test on Tetranychus urticae was 100% throughout. Also, the “efficacy (laying of fertile eggs)” value in the test on Boophilus microplus stood at 100%. The “efficacy (kill in %)” value with Ctenocephalides felis and in the test with Lucilia cuprina was 100% throughout.
In the case of `Cc1occc1C(=O)Nc1cc(-c2cnn(-c3c(C(F)(F)F)c(C(F)(F)C(F)(F)F)nn3C)c2)ccc1F` [Example 1-067], the “efficacy (laying of fertile eggs)” value in the test with Boophilus microplus is recorded as 100%. Moreover, the “efficacy (kill in %)” value with Ctenocephalides felis and in the test with Lucilia cuprina was 100% throughout. The efficacy in the test on Phaedon cochleariae (application rate 100 g/ha), in the test on Spodoptera frugiperda (application rate 100 g/ha) and in the test on Tetranychus urticae was 100% each time.
In the case of `Cn1nc(C(F)(F)C(F)(F)F)c(C(F)(F)F)c1-n1cc(-c2ccc(F)c(NC(=O)C(C)(C)CF)c2)cn1` [Example 1-046], the “efficacy (laying of fertile eggs)” value in the test on Boophilus microplus is given as 100%. The “efficacy (kill in %)” value with Lucilia cuprina is reported as 100%. The same molecule gave an efficacy with Tetranychus urticae of 100%.
With `CC(C(=O)Nc1cc(-c2cnn(-c3c(C(F)(F)F)c(C(F)(F)C(F)(F)F)nn3C)c2)ccc1F)c1ccccc1` (racemic) [Example 1-108], the “efficacy (laying of fertile eggs)” value in the test on Boophilus microplus turned out to be 100%. This molecule yielded an efficacy in the test with Tetranychus urticae of 100%.
Consider `Cn1nc(C(F)(F)C(F)(F)F)c(C(F)(F)F)c1-n1cc(-c2cccc(NC(=O)C3(C#N)CC3)c2)cn1` [Example 1-029], for which the efficacy with Rhipicephalus sanguineus (setting [1]) is given as 100%; in the test with Phaedon cochleariae (application rate 500 g/ha) it was 83%; with Spodoptera frugiperda (application rate 500 g/ha), 100%; in the test on Tetranychus urticae, 100%. Moreover, in the test on Boophilus microplus, the “efficacy (laying of fertile eggs)” value is 100%. Further, the “efficacy (kill in %)” value in the test with Ctenocephalides felis and in the test with Lucilia cuprina was 100% each time.
For `Cn1nc(C(F)(F)C(F)(F)F)c(C(F)(F)F)c1-n1cc(-c2ccc(F)c(NC(=O)Cc3cccc(C(F)(F)F)c3)c2)cn1` [Example 1-116], in the test with Boophilus microplus, the “efficacy (laying of fertile eggs)” value was 100%. The “efficacy (kill in %)” value in the test on Ctenocephalides felis and in the test with Lucilia cuprina was 100% in each case. Further, the efficacy was 100% in the test on Phaedon cochleariae (application rate 100 g/ha) and 83% with Spodoptera frugiperda (application rate 100 g/ha).
With `CN(C)c1ccc(C(=O)Nc2cc(-c3cnn(-c4c(C(F)(F)F)c(C(F)(F)C(F)(F)F)nn4C)c3)ccc2F)cc1` [Example 1-054], the efficacy in the test with Rhipicephalus sanguineus (setting [1]), with Phaedon cochleariae (application rate 100 g/ha), with Spodoptera frugiperda (application rate 100 g/ha) and with Tetranychus urticae was 100% each time. Moreover, in the test with Boophilus microplus, the “efficacy (laying of fertile eggs)” value is given as 100%. The “efficacy (kill in %)” value with Lucilia cuprina amounted to 100%.
